Blank lines part the entries; values can stand above or below the compound they belong to.
What was measured:
[1] = test system: patients with severe sepsis; assay: Phase 2 multicenter, double-blind, placebo-controlled trial: 28-day all-cause mortality; type: in vivo, human; details: for effect on mortality compared to placebo: administration started within 24 hours after first organ failure, continued up to 7 days
Description: FIG. 3 represents a plot of 28-day mortality by treatment (Y-axis) against time after first organ failure at which a sPLA2 inhibitor compound of formula I was administered (X-axis). […] Administration of a “high dose” of sPLA2 inhibitor compound of formula (I), at the same time frame (i.e., less than 12 hours after first organ failure) was associated with a mortality of 5.4% (bar 3). […] The efficacy of a sPLA2 inhibitor administered at 0-24 hours, preferably 0-12 hours, after first organ failure is particularly significant when a “high dose” sPLA2 inhibitor compound is administered.
The data were analyzed using the Cochran-Mantel-Haenszel test adjusted for the trial primary stratification factors at a two-sided 5% significance level. The overall treatment effect as well as for pair-wise comparisons were analyzed.
Study participants were included in the study if they met all of the criteria listed below. It is anticipated that almost all patients meeting these criteria would have been in an acute care area of the hospital such as an intensive care unit, step-down unit, emergency ward, or recovery room. The events satisfying these inclusion criteria must have been attributable to the onset of sepsis and not attributable to an underlying disease process or to the effects of concomitant therapy.
[3] Have had at least one of the following sepsis-induced organ failures within the 24-hour time period immediately preceding entry into the study:
The mortality data from the study are shown in diagrams 1 through 3.

melting point: 160 to 162 °C
Structure (SMILES): CCCCCCCCc1cc2c(cc1OCCCP(=O)(O)O)c1c(n2Cc2ccccc2)CCCC1C(N)=O (stereo not shown)

melting point: 235 to 238 °C (dec.)
Structure (SMILES): CCc1cc2c(cc1OCCCP(=O)(O)O)c1c(n2Cc2ccccc2)CCCC1C(N)=O (stereo not shown)

melting point: 154 to 156 °C
Structure (SMILES): COc1ccc2c(c1)c1c(n2Cc2ccccc2)CCCC1C(N)=O (stereo not shown)

melting point: 199 to 200 °C
Structure (SMILES): NC(=O)C1CCCc2c1c1cc(OCCCC(=O)O)ccc1n2Cc1ccccc1 (stereo not shown)

melting point: 200 to 201 °C
Structure (SMILES): NC(=O)C1CCCc2c1c1cc(OCCCP(=O)(O)O)ccc1n2Cc1ccccc1 (stereo not shown)

melting point: 189 to 190 °C
Structure (SMILES): COc1cc(OC)c2c3c(n(Cc4ccccc4)c2c1)CCCC3C(=O)NN (stereo not shown)

Structure (SMILES): CCc1c(C(=O)C(N)=O)c2c(OCC(=O)O)cccc2n1Cc1ccccc1 [compound (Vb)]
effect on mortality compared to placebo [1]: significant reduction in mortality
effect on mortality compared to placebo ([1]; listed as LY315920): statistically significant reduction in mortality
28 day mortality by treatment ([1]; high dose (target 800 ng/mL), administered between 12 and 24 hours after first organ failure, FIG. 3 bar 6, placebo 35.1%): 31.5%
28 day mortality by treatment ([1]; high dose (target plasma concentration 800 ng/mL), administered less than 12 hours after first organ failure, FIG. 3 bar 3, placebo 42.9%): 5.4%
28 day mortality by treatment ([1]; low dose (target 200 ng/mL), administered between 12 and 24 hours after first organ failure, FIG. 3 bar 5, placebo 35.1%): 38.2%
28 day mortality by treatment ([1]; low dose (target plasma concentration 200 ng/mL), administered less than 12 hours after first organ failure, FIG. 3 bar 2, placebo 42.9%): 19.2%
reduction in mortality, significance ([1]; low dose and high dose administered at 0-12 hours after first organ failure, Cochran-Mantel-Haenszel test, two-sided 5%): statistically significant
